# From BindingDB's records for patent WO2025051920 (Sanofi-Aventis Deutschland, 2025)
# Bridge positions count the residues as written; N and C are the ends. Square brackets hold non-standard residues; d marks the D form. Peptide text beside a SMILES is read from it. 2Nal = N[C@@H](Cc1ccc2ccccc2c1)C(=O)O; Thp = NC1(C(=O)O)CCOCC1
# Tests used:
# [1] = target: T1, Interleukin-23 subunit alpha/receptor (UniProt Q9NPF7+Q5VWK5); assay: ELISA assay for specific human IL-23R inhibitors
# T1 sequence (Q9NPF7 whole entry): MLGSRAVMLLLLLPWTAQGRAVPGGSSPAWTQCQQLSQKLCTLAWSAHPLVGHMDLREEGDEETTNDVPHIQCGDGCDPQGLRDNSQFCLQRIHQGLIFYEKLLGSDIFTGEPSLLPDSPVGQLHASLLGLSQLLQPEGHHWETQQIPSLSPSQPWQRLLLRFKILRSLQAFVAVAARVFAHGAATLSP
# T1 sequence (Q5VWK5 whole entry): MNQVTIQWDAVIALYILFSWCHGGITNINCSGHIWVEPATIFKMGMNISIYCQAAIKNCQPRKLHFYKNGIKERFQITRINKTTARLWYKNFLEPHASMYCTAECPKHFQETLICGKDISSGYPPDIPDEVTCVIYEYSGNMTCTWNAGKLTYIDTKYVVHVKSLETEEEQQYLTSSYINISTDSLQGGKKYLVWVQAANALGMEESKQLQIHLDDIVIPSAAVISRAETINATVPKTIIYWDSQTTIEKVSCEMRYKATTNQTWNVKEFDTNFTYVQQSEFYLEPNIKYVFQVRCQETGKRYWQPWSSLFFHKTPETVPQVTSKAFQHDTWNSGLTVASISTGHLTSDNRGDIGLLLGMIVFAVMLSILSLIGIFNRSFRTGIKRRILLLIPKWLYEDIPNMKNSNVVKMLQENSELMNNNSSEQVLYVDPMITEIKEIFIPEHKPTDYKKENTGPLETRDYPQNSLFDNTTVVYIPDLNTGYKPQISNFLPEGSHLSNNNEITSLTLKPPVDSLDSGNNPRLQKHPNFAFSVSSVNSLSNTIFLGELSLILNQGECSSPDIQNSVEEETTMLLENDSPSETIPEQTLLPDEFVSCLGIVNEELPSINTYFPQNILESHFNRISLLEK
# Protocol: (§1) A 384-well plate was coated with 50 µl/well of human IL-23 at a final concentration of […] and incubated overnight at 4°C. The wells were washed 3 times with […] wash buffer and blocked with […] blocking buffer for 60 minutes at room temperature and washed again. 20 µl of serially diluted test peptides was added to each well and subsequently 20 µl of recombinant human IL-23R-Fc chimera at final concentration of […]. The plate was incubated for 60 minutes at room temperature. After the wells were washed, bound IL-23R-Fc was detected with goat anti-hu- IgG 1 -HRP antibody. Signals were visualized with QuantaBlu Fluorogenic Peroxidase Substrate.
# [2] = target: Interleukin-23 subunit alpha/receptor (UniProt Q5VWK5); assay: ELISA assay for specific human IL-23R inhibitors
# Protocol: as §1
IC50 [1] [nM],IC50 [2] [nM],Structure (SMILES)
1.55,–,"COc1ccc(C[C@@H]2NC(=O)[C@H](CCCNC(=N)N)NC(=O)[C@H](CCC(N)=O)NC(=O)[C@H](Cc3c[nH]c4ccccc34)NC(=O)C([C@@H](C)O)NC(=O)[C@H](CC(N)=O)NC(=O)[C@H](NC(C)=O)CCCCNC(=O)C[C@H](C(=O)N[C@@H](CC(N)=O)C(=O)N[C@@H](CC(N)=O)C(=O)O)NC(=O)C(C)(C)NC(=O)[C@H](Cc3ccc4ccccc4c3)NC2=O)cc1 (some centres undefined) [WO2025051920, Example 3]"
1.95,–,"COc1ccc(C[C@@H]2NC(=O)[C@H](CCCNC(=N)N)NC(=O)[C@H](CCC(N)=O)NC(=O)[C@H](Cc3c[nH]c4ccccc34)NC(=O)C([C@@H](C)O)NC(=O)[C@H](CC(N)=O)NC(=O)[C@H](NC(C)=O)CCCCNC(=O)CC[C@H](C(=O)N[C@@H](CC(N)=O)C(=O)N[C@@H](CC(N)=O)C(=O)O)NC(=O)C(C)(C)NC(=O)[C@H](Cc3ccc4ccccc4c3)NC2=O)cc1 (some centres undefined) [WO2025051920, Example 5]"
3.55,–,"COc1ccc(C[C@@H]2NC(=O)[C@H](CCCNC(=N)N)NC(=O)[C@H](CCC(N)=O)NC(=O)[C@H](Cc3c[nH]c4ccccc34)NC(=O)C([C@@H](C)O)NC(=O)[C@H](CC(N)=O)NC(=O)C(NC(C)=O)CCCCNC(=O)C[C@H](C(=O)N[C@@H](CC(N)=O)C(=O)N[C@@H](CC(N)=O)C(=O)O)NC(=O)C(C)(C)NC(=O)[C@H](Cc3cccc4ccccc34)NC2=O)cc1 (some centres undefined) [WO2025051920, Example 9]"
1.04,–,"COc1ccc(C[C@@H]2NC(=O)[C@H](CCCNC(=N)N)NC(=O)[C@H](CCC(N)=O)NC(=O)[C@H](Cc3c[nH]c4ccccc34)NC(=O)C([C@@H](C)O)NC(=O)[C@H](CC(N)=O)NC(=O)C(NC(C)=O)CCCCNC(=O)C[C@H](C(=O)N[C@@H](CC(N)=O)C(=O)N[C@@H](CC(N)=O)C(=O)O)NC(=O)C(C)(C)NC(=O)[C@H](Cc3ccc4ccccc4c3)NC2=O)cc1 (some centres undefined) [WO2025051920, Example 15]"
12,–,"COc1ccc(C[C@@H]2NC(=O)[C@H](CCCNC(=N)N)NC(=O)[C@H](CCC(N)=O)NC(=O)[C@H](Cc3cn(C)c4ccccc34)NC(=O)[C@H]([C@@H](C)O)NC(=O)[C@H](CC(N)=O)NC(=O)[C@H](NC(C)=O)CCCCNC(=O)C[C@@H](C(=O)N[C@@H](CC(N)=O)C(=O)N[C@@H](CC(N)=O)C(=O)O)NC(=O)[C@H](CC(C)C)NC(=O)[C@H](Cc3cccc4ccccc34)NC2=O)cc1 [WO2025051920, Example 23]"
1.21,–,"COc1ccc(C[C@@H]2NC(=O)[C@H](CCCNC(=N)N)NC(=O)[C@H](CCC(N)=O)NC(=O)[C@H](Cc3cn(C)c4ccccc34)NC(=O)[C@H]([C@@H](C)O)NC(=O)[C@H](CC(N)=O)NC(=O)[C@H](NC(C)=O)CCCCNC(=O)C[C@@H](C(=O)N[C@@H](CC(N)=O)C(=O)N[C@@H](CC(N)=O)C(=O)O)NC(=O)[C@H](CC(C)C)NC(=O)[C@H](Cc3ccc4ccccc4c3)NC2=O)cc1 [WO2025051920, Example 24]"
4.66,–,"COc1ccc(C[C@@H]2NC(=O)[C@H](C)NC(=O)[C@H](CCC(N)=O)NC(=O)[C@H](Cc3c[nH]c4ccccc34)NC(=O)C([C@@H](C)O)NC(=O)[C@H](CC(N)=O)NC(=O)C(N)CCCCNC(=O)C[C@H](C(=O)N[C@@H](CC(N)=O)C(=O)N[C@@H](CC(N)=O)C(=O)O)NC(=O)C(C)(C)NC(=O)[C@H](Cc3ccc4ccccc4c3)NC2=O)cc1 (some centres undefined) [WO2025051920, Example 44]"
–,0.96,"COc1ccc(C[C@@H]2NC(=O)[C@H](C)NC(=O)[C@H](CCC(N)=O)NC(=O)[C@H](Cc3c[nH]c4ccccc34)NC(=O)[C@H]([C@@H](C)O)NC(=O)[C@H](CCCNC(=N)N)NC(=O)[C@H](NC(C)=O)CCCCNC(=O)C[C@@H](C(=O)N[C@@H](CC(N)=O)C(=O)N[C@@H](CC(N)=O)C(=O)O)NC(=O)C(C)(C)NC(=O)[C@H](Cc3ccc4ccccc4c3)NC2=O)cc1 [WO2025051920, Example 45]"
–,1.38,"COc1ccc(C[C@@H]2NC(=O)[C@H](C)NC(=O)[C@H](CCC(N)=O)NC(=O)[C@H](Cc3c[nH]c4ccccc34)NC(=O)[C@H](CCCNC(=N)N)NC(=O)[C@H](CC(N)=O)NC(=O)[C@H](NC(C)=O)CCCCNC(=O)C[C@@H](C(=O)N[C@@H](CC(N)=O)C(=O)N[C@@H](CC(N)=O)C(=O)O)NC(=O)C(C)(C)NC(=O)[C@H](Cc3ccc4ccccc4c3)NC2=O)cc1 [WO2025051920, Example 46]"
–,1.34,"COc1ccc(C[C@@H]2NC(=O)[C@H](C)NC(=O)[C@H](CCC(N)=O)NC(=O)[C@H](Cc3c[nH]c4ccccc34)NC(=O)[C@H]([C@@H](C)O)NC(=O)[C@H](CC(N)=O)NC(=O)[C@H](NC(C)=O)CCCCNC(=O)C[C@@H](C(=O)N[C@@H](CC(N)=O)C(=O)N[C@@H](CC(N)=O)C(=O)O)NC(=O)[C@H](CCCNC(=N)N)NC(=O)[C@H](Cc3ccc4ccccc4c3)NC2=O)cc1 [WO2025051920, Example 47]"
–,2.06,"COc1ccc(C[C@@H]2NC(=O)[C@H](C)NC(=O)[C@H](CCC(N)=O)NC(=O)[C@H](Cc3c[nH]c4ccccc34)NC(=O)[C@H]([C@@H](C)O)NC(=O)[C@H](CC(N)=O)NC(=O)[C@H](NC(C)=O)CCCCNC(=O)C[C@@H](C(=O)N[C@@H](CC(N)=O)C(=O)N[C@@H](C)C(=O)O)NC(=O)C(C)(C)NC(=O)[C@H](Cc3ccc4ccccc4c3)NC2=O)cc1 [WO2025051920, Example 48]"
–,3.13,"COc1ccc(C[C@@H]2NC(=O)[C@H](C)NC(=O)[C@H](CCC(N)=O)NC(=O)[C@H](Cc3c[nH]c4ccccc34)NC(=O)[C@H]([C@@H](C)O)NC(=O)[C@H](CC(N)=O)NC(=O)[C@H](NC(C)=O)CCCCNC(=O)C[C@@H](C(=O)N[C@@H](C)C(=O)N[C@@H](CC(N)=O)C(=O)O)NC(=O)C(C)(C)NC(=O)[C@H](Cc3ccc4ccccc4c3)NC2=O)cc1 [WO2025051920, Example 49]"
–,8.29,"COc1ccc(C[C@@H]2NC(=O)[C@H](C)NC(=O)[C@H](CCC(N)=O)NC(=O)[C@H](Cc3c[nH]c4ccccc34)NC(=O)[C@H]([C@@H](C)O)NC(=O)[C@H](CC(N)=O)NC(=O)[C@H](NC(C)=O)CCCCNC(=O)C[C@@H](C(=O)N[C@@H](C)C(=O)N[C@@H](C)C(=O)O)NC(=O)C(C)(C)NC(=O)[C@H](Cc3ccc4ccccc4c3)NC2=O)cc1 [WO2025051920, Example 50]"
–,0.78,"COc1ccc(C[C@@H]2NC(=O)[C@H](C)NC(=O)[C@H](CCC(N)=O)NC(=O)[C@H](Cc3c[nH]c4ccccc34)NC(=O)[C@H]([C@@H](C)O)NC(=O)[C@H](CC(N)=O)NC(=O)[C@H](NC(C)=O)CCCCNC(=O)C[C@@H](C(=O)N[C@@H](CC(N)=O)C(=O)N[C@@H](CC(N)=O)C(N)=O)NC(=O)C3(CCOCC3)NC(=O)[C@H](Cc3ccc4ccccc4c3)NC2=O)cc1 [WO2025051920, Example 51] (Ac-[dK]NTWQAY(Me)[2Nal][Thp]DNN-NH2; lactam 1-10)"
